In PubChem BioAssay (NCI):
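Cells were grown in 96-well plates and exposed to each compound for 48 hours at five concentrations; endpoints were interpolated linearly between bracketing concentrations, or set to the highest concentration if not reached. GI50 marks 50% less growth. TGI marks complete inhibition of growth.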

Legend:
Assay in all cases: DTP human tumour cell line panel, 48 h
[1] = tested on: SK-MEL-28 melanoma
[2] = tested on: BT-549 breast
[3] = tested on: OVCAR-4 ovarian
[4] = tested on: T-47D breast
[5] = tested on: RXF 393 renal
[6] = tested on: NCI-H226 lung
[7] = tested on: A549 NSCLC
[8] = tested on: CCRF-CEM leukemia
[9] = tested on: NCI-H23 lung
[10] = tested on: SK-MEL-5 melanoma
[11] = tested on: SF-539 CNS
[12] = tested on: RPMI-8226 leukemia
[13] = tested on: K-562 leukemia
[14] = tested on: HCT-15 colon
[15] = tested on: IGROV1 ovarian
[16] = tested on: SK-OV-3 ovarian
[17] = tested on: COLO 205 colon
[18] = tested on: U251 CNS
[19] = tested on: MDA-MB-435
[20] = tested on: HCC-2998 colon
[21] = tested on: NCI-H522 lung
[22] = tested on: HCT-116 colon
[23] = tested on: MCF7 breast
[24] = tested on: 786-0 renal
[25] = tested on: KM12 colon
[26] = tested on: SF-295 CNS
[27] = tested on: SF-268 CNS
[28] = tested on: SR leukemia
[29] = tested on: MDA-MB-231 breast
[30] = tested on: SN12C renal
[31] = tested on: A498 renal
[32] = tested on: HL-60(TB) leukemia
[33] = tested on: SK-MEL-2 melanoma
[34] = tested on: SNB-75 CNS
[35] = tested on: UACC-62 melanoma
[36] = tested on: UO-31 renal
[37] = tested on: MOLT-4 leukemia
[38] = tested on: HT29 colon
[39] = tested on: SW-620 colon
[40] = tested on: HOP-62 NSCLC
[41] = tested on: UACC-257 melanoma
[42] = tested on: DU-145 prostate
[43] = tested on: CAKI-1 renal
[44] = tested on: LOX IMVI melanoma
[45] = tested on: MALME-3M melanoma
[46] = tested on: HS 578T breast
[47] = tested on: SNB-19 CNS
[48] = tested on: PC-3 prostate
[49] = tested on: M14 melanoma
[50] = tested on: OVCAR-5 ovarian
[51] = tested on: TK-10 renal
[52] = tested on: OVCAR-3 ovarian
[53] = tested on: OVCAR-8 ovarian
[54] = tested on: NCI/ADR-RES ovarian
[55] = tested on: ACHN renal
[56] = tested on: HOP-92 NSCLC
[57] = tested on: NCI-H460 lung

Compound: O=C1NC(=NCc2ccccc2Br)S/C1=C\c1ccc2ncccc2c1
- GI50 [1]: > 20.5 µM
- TGI [1]: > 25 µM
- GI50 [2]: 6.32 µM
- TGI [2]: > 22.3 µM
- GI50 [3]: 7.35 µM
- TGI [3]: > 25 µM
- GI50 [4]: 6.78 µM
- TGI [4]: 24.5 µM
- GI50 [5]: 8.07 µM
- TGI [5]: > 25 µM
- GI50 [6]: 8.06 µM
- TGI [6]: > 25 µM
- GI50 [7]: 5.99 µM
- TGI [7]: > 25 µM
- GI50 [8]: 7.26 µM
- TGI [8]: > 25 µM
- GI50 [9]: 11.5 µM
- TGI [9]: > 25 µM
- GI50 [10]: 10.4 µM
- TGI [10]: > 25 µM
- GI50 [11]: 5.84 µM
- TGI [11]: > 25 µM
- GI50 [12]: 8.74 µM
- TGI [12]: > 25 µM
- GI50 [13]: 8.19 µM
- TGI [13]: > 25 µM
- GI50 [14]: 4.36 µM
- TGI [14]: > 25 µM
- GI50 [15]: 7.68 µM
- TGI [15]: > 21.2 µM
- GI50 [16]: 8.11 µM
- TGI [16]: > 18.6 µM
- GI50 [17]: 5.4 µM
- TGI [17]: > 25 µM
- GI50 [18]: 4.77 µM
- TGI [18]: > 25 µM
- GI50 [19]: 5.62 µM
- TGI [19]: > 25 µM
- GI50 [20]: 24.3 µM
- TGI [20]: > 25 µM
- GI50 [21]: 6.22 µM
- TGI [21]: 16.5 µM
- GI50 [22]: 2.74 µM
- TGI [22]: > 25 µM
- GI50 [23]: 4.07 µM
- TGI [23]: > 25 µM
- GI50 [24]: 9.43 µM
- TGI [24]: > 25 µM
- GI50 [25]: 10.6 µM
- TGI [25]: > 25 µM
- GI50 [26]: 8.03 µM
- TGI [26]: > 25 µM
- GI50 [27]: 7.83 µM
- TGI [27]: > 25 µM
- GI50 [28]: 1.03 µM
- TGI [28]: 8.39 µM
- GI50 [29]: 15 µM
- TGI [29]: > 25 µM
- GI50 [30]: 9.31 µM
- TGI [30]: > 25 µM
- GI50 [31]: 5.55 µM
- TGI [31]: > 21.4 µM
- GI50 [32]: 7.96 µM
- TGI [32]: > 23.4 µM
- GI50 [33]: 7.66 µM
- TGI [33]: 19 µM
- GI50 [34]: 3.82 µM
- TGI [34]: > 23.7 µM
- GI50 [35]: 11.8 µM
- TGI [35]: > 25 µM
- GI50 [36]: 8.08 µM
- TGI [36]: > 22 µM
- GI50 [37]: 10 µM
- TGI [37]: > 25 µM
- GI50 [38]: 10.7 µM
- TGI [38]: > 25 µM
- GI50 [39]: 6.71 µM
- TGI [39]: > 25 µM
- GI50 [40]: 5.93 µM
- TGI [40]: > 17.5 µM
- GI50 [41]: 17.8 µM
- TGI [41]: > 25 µM
- GI50 [42]: 8.69 µM
- TGI [42]: > 25 µM
- GI50 [43]: 7.18 µM
- TGI [43]: > 25 µM
- GI50 [44]: 4.7 µM
- TGI [44]: > 25 µM
- GI50 [45]: > 15.3 µM
- TGI [45]: > 25 µM
- GI50 [46]: 6.28 µM
- TGI [46]: 24.4 µM
- GI50 [47]: 9.4 µM
- TGI [47]: > 25 µM
- GI50 [48]: 15.2 µM
- TGI [48]: > 25 µM
- GI50 [49]: 11.1 µM
- TGI [49]: > 25 µM
- GI50 [50]: > 25 µM
- TGI [50]: > 25 µM
- GI50 [51]: 14.8 µM
- TGI [51]: > 25 µM
- GI50 [52]: 10 µM
- TGI [52]: > 25 µM
- GI50 [53]: 9.14 µM
- TGI [53]: > 25 µM
- GI50 [54]: 11.9 µM
- TGI [54]: > 25 µM
- GI50 [55]: 10.6 µM
- TGI [55]: > 25 µM
- GI50 [56]: 6.89 µM
- TGI [56]: > 23.3 µM
- GI50 [57]: 6.1 µM
- TGI [57]: > 25 µM
